The text below walks through data of ChEMBL document CHEMBL4028801, “A multifactorial approach to hepatobiliary transporter assessment enables improved therapeutic compound development” (Toxicol Sci, 2013).

For one experiment, the target named is Bile salt export pump (Homo sapiens, UniProt O95342). The experiment is described as follows: Inhibition of human BSEP overexpressed in Sf9 cell membrane vesicles assessed as uptake of [3H]-taurocholate in presence of ATP measured after 15 to 20 mins by membrane vesicle transport assay. The format is ADME, cell-based.
For experiment [1], the target named is ATP-binding cassette sub-family C member 3 (Homo sapiens, UniProt O15438). Briefly: Inhibition of human MRP3 overexpressed in Sf9 insect cell membrane vesicles assessed as uptake of [3H]-estradiol-17beta-D-glucuronide in presence of ATP and GSH measured after 10 mins by membrane vesicle transport assay. Format: ADME, cell-based.
Experiment [2] has as its target ATP-binding cassette sub-family C member 2 (Homo sapiens, UniProt Q92887). Briefly: Inhibition of human MRP2 overexpressed in Sf9 cell membrane vesicles assessed as uptake of [3H]-estradiol-17beta-D-glucuronide in presence of ATP and GSH measured after 20 mins by membrane vesicle transport assay.
Experiment [3] deals with T1, ATP-binding cassette sub-family C member 4 (Homo sapiens, UniProt O15439).
T1 sequence (O15439 whole entry): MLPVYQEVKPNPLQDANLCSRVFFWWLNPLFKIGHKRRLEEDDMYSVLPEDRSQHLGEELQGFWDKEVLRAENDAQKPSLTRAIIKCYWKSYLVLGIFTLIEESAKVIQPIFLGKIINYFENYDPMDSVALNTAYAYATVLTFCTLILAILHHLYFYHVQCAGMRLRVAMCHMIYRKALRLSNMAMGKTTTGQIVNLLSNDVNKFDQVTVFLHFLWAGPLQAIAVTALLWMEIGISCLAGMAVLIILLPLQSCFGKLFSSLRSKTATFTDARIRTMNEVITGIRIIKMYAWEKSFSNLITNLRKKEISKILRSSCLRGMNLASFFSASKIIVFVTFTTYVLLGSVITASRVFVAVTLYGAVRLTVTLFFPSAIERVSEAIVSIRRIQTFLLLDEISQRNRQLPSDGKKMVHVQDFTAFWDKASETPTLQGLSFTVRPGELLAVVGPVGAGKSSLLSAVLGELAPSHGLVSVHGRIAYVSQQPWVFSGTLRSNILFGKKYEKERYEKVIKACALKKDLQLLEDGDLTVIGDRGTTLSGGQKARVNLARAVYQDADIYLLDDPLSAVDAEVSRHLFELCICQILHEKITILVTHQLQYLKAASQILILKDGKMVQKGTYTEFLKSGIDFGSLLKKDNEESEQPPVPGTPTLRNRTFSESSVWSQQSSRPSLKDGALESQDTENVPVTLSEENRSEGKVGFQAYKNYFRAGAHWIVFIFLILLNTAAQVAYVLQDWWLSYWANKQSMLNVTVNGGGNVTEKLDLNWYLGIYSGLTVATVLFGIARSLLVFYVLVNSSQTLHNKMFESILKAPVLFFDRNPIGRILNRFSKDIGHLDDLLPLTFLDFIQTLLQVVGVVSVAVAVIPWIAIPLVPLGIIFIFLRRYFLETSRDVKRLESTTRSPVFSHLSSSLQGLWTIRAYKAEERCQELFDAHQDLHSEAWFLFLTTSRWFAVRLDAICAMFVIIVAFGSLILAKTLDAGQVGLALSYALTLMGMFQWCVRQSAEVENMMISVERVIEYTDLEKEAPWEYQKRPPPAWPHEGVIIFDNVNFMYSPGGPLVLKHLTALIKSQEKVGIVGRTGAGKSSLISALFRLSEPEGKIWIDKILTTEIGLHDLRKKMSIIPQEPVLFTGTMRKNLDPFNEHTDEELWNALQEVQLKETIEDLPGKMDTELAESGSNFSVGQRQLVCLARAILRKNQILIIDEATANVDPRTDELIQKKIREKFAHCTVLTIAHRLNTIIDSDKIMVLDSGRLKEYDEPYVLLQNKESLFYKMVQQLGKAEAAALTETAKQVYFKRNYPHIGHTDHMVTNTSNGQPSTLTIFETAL
The experiment is described as follows: Inhibition of human MRP4 overexpressed in Sf9 cell membrane vesicles assessed as uptake of [3H]-estradiol-17beta-D-glucuronide in presence of ATP and GSH measured after 20 mins by membrane vesicle transport assay. Format: ADME, cell-based.

Counter-ions that a name gives are not always drawn.

Chain of ATP-binding cassette sub-family C member 2 (Q92887 whole entry): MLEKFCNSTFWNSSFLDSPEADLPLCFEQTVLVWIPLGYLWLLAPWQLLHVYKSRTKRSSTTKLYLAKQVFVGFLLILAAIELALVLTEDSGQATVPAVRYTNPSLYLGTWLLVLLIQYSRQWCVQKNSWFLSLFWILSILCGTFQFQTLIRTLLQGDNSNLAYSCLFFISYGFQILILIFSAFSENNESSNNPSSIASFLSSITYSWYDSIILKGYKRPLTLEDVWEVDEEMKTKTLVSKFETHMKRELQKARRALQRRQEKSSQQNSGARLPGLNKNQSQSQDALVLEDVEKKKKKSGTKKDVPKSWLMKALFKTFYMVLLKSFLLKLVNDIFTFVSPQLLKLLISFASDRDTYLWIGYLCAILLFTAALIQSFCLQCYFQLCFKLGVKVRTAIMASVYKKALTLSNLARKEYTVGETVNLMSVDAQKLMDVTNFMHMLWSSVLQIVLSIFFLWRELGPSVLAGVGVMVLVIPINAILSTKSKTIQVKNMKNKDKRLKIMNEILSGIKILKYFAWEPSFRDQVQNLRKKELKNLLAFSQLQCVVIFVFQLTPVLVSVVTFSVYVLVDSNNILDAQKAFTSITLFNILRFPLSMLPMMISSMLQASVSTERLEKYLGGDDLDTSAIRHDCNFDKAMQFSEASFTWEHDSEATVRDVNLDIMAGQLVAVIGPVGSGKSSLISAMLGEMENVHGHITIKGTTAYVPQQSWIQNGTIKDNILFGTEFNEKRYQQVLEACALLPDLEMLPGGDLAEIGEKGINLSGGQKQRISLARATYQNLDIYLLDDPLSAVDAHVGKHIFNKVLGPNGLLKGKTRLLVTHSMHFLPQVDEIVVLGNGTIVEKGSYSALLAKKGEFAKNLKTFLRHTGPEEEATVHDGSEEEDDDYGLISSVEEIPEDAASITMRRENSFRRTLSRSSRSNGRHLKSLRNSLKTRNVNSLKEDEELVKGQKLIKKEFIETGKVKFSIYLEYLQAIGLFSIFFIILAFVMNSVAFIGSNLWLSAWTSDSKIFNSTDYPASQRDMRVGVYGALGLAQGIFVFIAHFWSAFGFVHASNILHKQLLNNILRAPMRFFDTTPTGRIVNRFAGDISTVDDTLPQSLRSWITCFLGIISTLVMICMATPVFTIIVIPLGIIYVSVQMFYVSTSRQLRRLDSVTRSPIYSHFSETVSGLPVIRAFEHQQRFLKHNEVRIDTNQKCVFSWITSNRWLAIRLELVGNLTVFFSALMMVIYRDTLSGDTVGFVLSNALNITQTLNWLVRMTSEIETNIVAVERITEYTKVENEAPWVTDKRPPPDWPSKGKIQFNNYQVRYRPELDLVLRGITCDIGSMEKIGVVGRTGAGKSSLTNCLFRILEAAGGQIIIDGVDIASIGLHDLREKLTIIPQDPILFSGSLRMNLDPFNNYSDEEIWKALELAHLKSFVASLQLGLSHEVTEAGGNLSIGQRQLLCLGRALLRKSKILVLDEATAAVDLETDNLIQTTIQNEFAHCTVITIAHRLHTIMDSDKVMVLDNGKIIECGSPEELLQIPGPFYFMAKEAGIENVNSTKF
Chain of ATP-binding cassette sub-family C member 3 (O15438 whole entry): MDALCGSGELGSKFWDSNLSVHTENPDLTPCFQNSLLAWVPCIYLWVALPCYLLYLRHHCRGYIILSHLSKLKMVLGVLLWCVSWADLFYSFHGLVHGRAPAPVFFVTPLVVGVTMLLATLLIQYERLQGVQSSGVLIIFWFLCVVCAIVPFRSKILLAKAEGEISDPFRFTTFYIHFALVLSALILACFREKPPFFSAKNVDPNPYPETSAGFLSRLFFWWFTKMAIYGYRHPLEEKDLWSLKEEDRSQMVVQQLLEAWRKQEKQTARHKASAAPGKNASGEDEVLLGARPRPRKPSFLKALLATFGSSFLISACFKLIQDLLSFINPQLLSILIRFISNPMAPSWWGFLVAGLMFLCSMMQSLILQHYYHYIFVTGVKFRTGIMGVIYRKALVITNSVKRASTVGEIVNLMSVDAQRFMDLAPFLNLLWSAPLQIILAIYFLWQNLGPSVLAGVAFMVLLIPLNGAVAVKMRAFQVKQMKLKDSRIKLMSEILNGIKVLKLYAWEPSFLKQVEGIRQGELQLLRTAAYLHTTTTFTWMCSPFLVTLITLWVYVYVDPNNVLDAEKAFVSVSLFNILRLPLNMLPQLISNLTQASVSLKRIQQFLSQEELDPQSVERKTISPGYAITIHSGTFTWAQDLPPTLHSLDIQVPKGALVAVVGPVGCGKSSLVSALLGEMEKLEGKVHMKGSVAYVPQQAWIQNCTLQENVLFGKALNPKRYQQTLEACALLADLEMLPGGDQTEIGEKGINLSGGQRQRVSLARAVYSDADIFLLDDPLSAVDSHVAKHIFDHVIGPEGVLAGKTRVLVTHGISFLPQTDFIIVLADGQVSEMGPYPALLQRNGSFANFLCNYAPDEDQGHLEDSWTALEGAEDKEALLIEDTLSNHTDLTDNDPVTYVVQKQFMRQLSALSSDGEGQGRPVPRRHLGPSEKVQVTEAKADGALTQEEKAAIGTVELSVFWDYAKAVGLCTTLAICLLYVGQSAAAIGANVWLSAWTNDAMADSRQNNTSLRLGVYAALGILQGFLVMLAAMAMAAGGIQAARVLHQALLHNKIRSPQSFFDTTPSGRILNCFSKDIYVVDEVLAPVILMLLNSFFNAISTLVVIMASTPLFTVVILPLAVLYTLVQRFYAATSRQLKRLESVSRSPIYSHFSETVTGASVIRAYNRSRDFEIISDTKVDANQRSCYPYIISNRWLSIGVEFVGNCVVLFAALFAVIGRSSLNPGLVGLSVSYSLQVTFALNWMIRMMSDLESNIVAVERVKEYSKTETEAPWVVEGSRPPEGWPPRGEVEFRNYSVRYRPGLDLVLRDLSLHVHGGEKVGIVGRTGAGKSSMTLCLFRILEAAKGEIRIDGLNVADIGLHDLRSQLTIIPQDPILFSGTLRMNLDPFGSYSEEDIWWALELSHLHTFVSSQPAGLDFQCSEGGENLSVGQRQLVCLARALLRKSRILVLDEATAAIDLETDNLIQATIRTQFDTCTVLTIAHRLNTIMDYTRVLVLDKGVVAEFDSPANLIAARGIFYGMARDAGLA
Chain of Bile salt export pump (O95342 whole entry): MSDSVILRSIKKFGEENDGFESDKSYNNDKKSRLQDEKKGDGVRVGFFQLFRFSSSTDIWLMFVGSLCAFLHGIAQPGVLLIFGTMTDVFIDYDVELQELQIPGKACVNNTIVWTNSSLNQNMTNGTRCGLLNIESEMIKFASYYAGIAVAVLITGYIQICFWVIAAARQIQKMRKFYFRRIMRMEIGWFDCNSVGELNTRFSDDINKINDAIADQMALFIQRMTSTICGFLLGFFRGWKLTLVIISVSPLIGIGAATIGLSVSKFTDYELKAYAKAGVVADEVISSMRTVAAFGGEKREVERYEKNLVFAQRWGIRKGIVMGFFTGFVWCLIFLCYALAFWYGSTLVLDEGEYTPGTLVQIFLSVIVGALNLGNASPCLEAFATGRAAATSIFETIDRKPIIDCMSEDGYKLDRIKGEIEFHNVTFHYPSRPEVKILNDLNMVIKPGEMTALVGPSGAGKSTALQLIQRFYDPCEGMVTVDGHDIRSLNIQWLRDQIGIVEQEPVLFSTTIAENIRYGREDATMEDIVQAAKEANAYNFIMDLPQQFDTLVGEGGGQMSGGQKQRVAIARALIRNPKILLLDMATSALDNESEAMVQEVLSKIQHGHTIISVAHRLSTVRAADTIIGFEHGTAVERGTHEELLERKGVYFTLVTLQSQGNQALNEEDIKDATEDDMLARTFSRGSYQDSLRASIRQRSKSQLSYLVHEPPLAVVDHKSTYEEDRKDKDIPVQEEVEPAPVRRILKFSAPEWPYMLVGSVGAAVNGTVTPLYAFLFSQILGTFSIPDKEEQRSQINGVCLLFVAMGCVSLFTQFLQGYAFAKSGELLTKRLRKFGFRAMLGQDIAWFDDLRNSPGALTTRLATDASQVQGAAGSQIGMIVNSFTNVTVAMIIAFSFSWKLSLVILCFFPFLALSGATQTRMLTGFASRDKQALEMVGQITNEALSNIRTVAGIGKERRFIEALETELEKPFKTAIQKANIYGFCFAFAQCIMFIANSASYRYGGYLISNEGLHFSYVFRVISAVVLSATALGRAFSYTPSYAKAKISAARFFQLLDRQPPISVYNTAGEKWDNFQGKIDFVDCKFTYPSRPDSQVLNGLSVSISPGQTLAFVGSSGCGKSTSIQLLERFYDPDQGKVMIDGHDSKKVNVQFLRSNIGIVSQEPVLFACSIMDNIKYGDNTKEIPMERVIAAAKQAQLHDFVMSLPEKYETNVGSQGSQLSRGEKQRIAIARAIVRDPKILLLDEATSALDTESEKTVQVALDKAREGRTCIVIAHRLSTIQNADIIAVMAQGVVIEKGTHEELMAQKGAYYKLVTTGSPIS

Take `Oc1ccc(C2CNCCc3c2cc(O)c(O)c3Cl)cc1` (stereo not given) [FENOLDOPAM MESYLATE]: the IC50 (at Bile salt export pump; in experiment [1]; in experiment [2]; in experiment [3]) was greater than 133 µM throughout.

Take `CC(C)=CCC1C(=O)N(c2ccccc2)N(c2ccccc2)C1=O` [FEPRAZONE]: the IC50 on Bile salt export pump is 73.9 µM; in experiment [1] it was greater than 133 µM; in experiment [2] it was greater than 133 µM; in experiment [3] it was greater than 133 µM.

`CC(C)C(=O)Oc1ccc(CO)cc1[C@H](CCN(C(C)C)C(C)C)c1ccccc1` [FESOTERODINE FUMARATE]: the half-inhibitory concentration (IC50) (on Bile salt export pump; in experiment [1]; in experiment [2]; in experiment [3]) was greater than 133 µM throughout.

Turning to `CN1CCN(c2c(F)cc3c(=O)c(C(=O)O)cn(CCF)c3c2F)CC1` [FLEROXACIN], the concentration for half-maximal inhibition (IC50) (at Bile salt export pump; in experiment [1]; in experiment [2]; in experiment [3]) was greater than 133 µM in each case.

On to `COc1ccc(Cl)cc1[C@]1(F)C(=O)Nc2cc(C(F)(F)F)ccc21` [FLINDOKALNER], for which the IC50 (on Bile salt export pump; in experiment [1]; in experiment [2]; in experiment [3]) was greater than 133 µM each time.

In the case of `Nc1nc(=O)[nH]cc1F` [FLUCYTOSINE], the IC50 (at Bile salt export pump; in experiment [1]; in experiment [2]; in experiment [3]) was greater than 133 µM in each case.

On to `Nc1nc(F)nc2c1ncn2[C@@H]1O[C@H](COP(=O)(O)O)[C@@H](O)[C@@H]1O` [FLUDARABINE PHOSPHATE], for which the IC50 (at Bile salt export pump; in experiment [1]; in experiment [2]; in experiment [3]) was greater than 133 µM each time.

Take `CCOC(=O)c1ncn2c1CN(C)C(=O)c1cc(F)ccc1-2` [FLUMAZENIL]: the IC50 (at Bile salt export pump; in experiment [1]; in experiment [2]; in experiment [3]) was greater than 133 µM each time.

Consider `CC1(C)O[C@@H]2C[C@H]3[C@@H]4C[C@H](F)C5=CC(=O)C=C[C@]5(C)[C@H]4[C@@H](O)C[C@]3(C)[C@]2(C(=O)CO)O1` [FLUNISOLIDE], for which the IC50 (on Bile salt export pump; in experiment [1]; in experiment [2]; in experiment [3]) was greater than 133 µM each time.

For the compound `O=c1[nH]cc(F)c(=O)[nH]1` [FLUOROURACIL], the IC50 (on Bile salt export pump; in experiment [1]; in experiment [2]; in experiment [3]) was greater than 133 µM throughout.

As for `CC(C)C(=O)Nc1ccc([N+](=O)[O-])c(C(F)(F)F)c1` [FLUTAMIDE], the IC50 (at Bile salt export pump; in experiment [1]; in experiment [2]; in experiment [3]) was greater than 133 µM each time.

Regarding `CCC(=O)O[C@]1(C(=O)SCF)[C@H](C)C[C@H]2[C@@H]3C[C@H](F)C4=CC(=O)C=C[C@]4(C)[C@@]3(F)[C@@H](O)C[C@@]21C` [FLUTICASONE PROPIONATE], the half-inhibitory concentration (IC50) (at Bile salt export pump; in experiment [1]; in experiment [2]; in experiment [3]) was greater than 133 µM throughout.

Consider `O=C(O)P(=O)(O)O` [FOSCARNET SODIUM], for which the IC50 (at Bile salt export pump; in experiment [1]; in experiment [2]; in experiment [3]) was greater than 133 µM in each case.

As to `C[C@]12CC[C@@H]3c4ccc(O)cc4C[C@@H](CCCCCCCCC[S+]([O-])CCCC(F)(F)C(F)(F)F)[C@H]3[C@@H]1CC[C@@H]2O` (stereo not given in full) [FULVESTRANT], the IC50 (at Bile salt export pump; in experiment [1]; in experiment [2]; in experiment [3]) was greater than 133 µM throughout.

`COc1ccc2c3c1O[C@H]1C[C@@H](O)C=C[C@@]31CCN(C)C2` [GALANTAMINE]: the IC50 (at Bile salt export pump; in experiment [1]; in experiment [2]; in experiment [3]) was greater than 133 µM throughout.

Turning to `Nc1nc(O)c2ncn(COC(CO)CO)c2n1` [GANCICLOVIR], the IC50 (on Bile salt export pump; in experiment [1]; in experiment [2]; in experiment [3]) was greater than 133 µM in each case.

Take `COc1c(N2CCNC(C)C2)c(F)cc2c(=O)c(C(=O)O)cn(C3CC3)c12` (stereo not given) [GATIFLOXACIN]: the IC50 (at Bile salt export pump; in experiment [1]; in experiment [2]; in experiment [3]) was greater than 133 µM throughout.

Take `Nc1ccn([C@@H]2O[C@H](CO)[C@@H](O)C2(F)F)c(=O)n1` [GEMCITABINE HYDROCHLORIDE]: the IC50 (at Bile salt export pump; in experiment [1]; in experiment [2]; in experiment [3]) was greater than 133 µM throughout.

For `CO/N=C1\CN(c2nc3c(cc2F)c(=O)c(C(=O)O)cn3C2CC2)CC1CN` (stereo not given) [GEMIFLOXACIN MESYLATE], the IC50 was greater than 133 µM on Bile salt export pump, greater than 133 µM in experiment [1], greater than 133 µM in experiment [2] and 73.2 µM in experiment [3].

On to `C#C[C@]1(O)C=C[C@H]2[C@@H]3CCC4=CC(=O)CC[C@@H]4[C@H]3CC[C@@]21CC` [GESTODENE], for which the IC50 (at Bile salt export pump; in experiment [1]; in experiment [2]; in experiment [3]) was greater than 133 µM throughout.

For `Cc1ccc(S(=O)(=O)NC(=O)NN2CC3CCCC3C2)cc1` (stereo not given) [GLICLAZIDE], the IC50 (at Bile salt export pump; in experiment [1]; in experiment [2]; in experiment [3]) was greater than 133 µM each time.

On to `CC(C)C[C@H](NC(=O)[C@@H](COC(C)(C)C)NC(=O)[C@H](Cc1ccc(O)cc1)NC(=O)[C@H](CO)NC(=O)[C@H](Cc1c[nH]c2ccccc12)NC(=O)[C@H](Cc1cnc[nH]1)NC(=O)[C@@H]1CCC(=O)N1)C(=O)N[C@@H](CCCNC(=N)N)C(=O)N1CCC[C@H]1C(=O)NNC(N)=O` [GOSERELIN ACETATE], for which the IC50 (at Bile salt export pump; in experiment [1]; in experiment [2]; in experiment [3]) was greater than 133 µM in each case.

In the case of `N=C(N)NC(=O)Cc1c(Cl)cccc1Cl` [GUANFACINE], the IC50 (on Bile salt export pump; in experiment [1]; in experiment [2]; in experiment [3]) was greater than 133 µM throughout.

Turning to `NS(=O)(=O)c1cc2c(cc1Cl)NCNS2(=O)=O` [HYDROCHLOROTHIAZIDE], the IC50 (on Bile salt export pump; in experiment [1]; in experiment [2]; in experiment [3]) was greater than 133 µM throughout.

Turning to `NS(=O)(=O)c1cc2c(cc1C(F)(F)F)NCNS2(=O)=O` [HYDROFLUMETHIAZIDE], the IC50 (on Bile salt export pump; in experiment [1]; in experiment [2]; in experiment [3]) was greater than 133 µM each time.

In the case of `CCN(CCO)CCCC(C)Nc1ccnc2cc(Cl)ccc12` (stereo not given) [HYDROXYCHLOROQUINE SULFATE], the IC50 (on Bile salt export pump; in experiment [1]; in experiment [2]; in experiment [3]) was greater than 133 µM in each case.

`c1ccc2c(c1)OCC(C1=NCCN1)O2` (stereo not given) [IDAZOXAN]: the IC50 (at Bile salt export pump; in experiment [1]; in experiment [2]; in experiment [3]) was greater than 133 µM in each case.

As to `O=P1(NCCCl)OCCCN1CCCl` (stereo not given) [IFOSFAMIDE], the concentration for half-maximal inhibition (IC50) (at Bile salt export pump; in experiment [1]; in experiment [2]; in experiment [3]) was greater than 133 µM throughout.

For the compound `CC(C)Cn1cnc2c(N)nc3ccccc3c21` [IMIQUIMOD], the IC50 (on Bile salt export pump; in experiment [1]; in experiment [2]; in experiment [3]) was greater than 133 µM in each case.

As for `Nc1cc(-c2ccncc2)c[nH]c1=O` [INAMRINONE], the IC50 (on Bile salt export pump; in experiment [1]; in experiment [2]; in experiment [3]) was greater than 133 µM each time.

As a reminder, the IC50 is the concentration that inhibits the measured activity by half.
